Laboratory results reported in article PMC10950897, “VCF1 is a p97/VCP cofactor promoting recognition of ubiquitylated p97-UFD1-NPL4 substrates” (Nature Communications, 2024).
“Also recorded” adds a separate entry of the source.

How the values were obtained:
[1] = tested on: Ub(G76V)-GFP, U2OS cells; assay: QIBC of Ub(G76V)-GFP in cells overexpressing FLAG-tagged proteins; type: cell-based, human; conditions: FLAG-tagged plasmids, FLAG-positive cells
Protocol: U2OS (catalog no. HTB-96) cells were obtained from ATCC. HEK293-EBNA1-6E cells were a kind gift from Yves Durocher (National Research Council Canada, Montreal, Canada). All mammalian cell lines were cultured under standard conditions at 37 °C and 5% CO2 in DMEM (Thermo) supplemented with 10% FBS (v/v) and penicillin-streptomycin (Thermo). Recombination cloning-compatible U2OS cells were generated using the Flp-In T-Rex Core Kit (Thermo) according to the manufacturer’s instructions and maintained under selection using Blasticidin (Invivogen) and Zeocin (Thermo). To generate cell lines stably expressing GFP-VCF1, U2OS Flp-In T-Rex cells (Thermo) were co-transfected with GFP-VCF1 constructs and pOG44 (Thermo) plasmids, followed by selection with Hygromycin (Invitrogen). Single clones were carefully screened for uniform expression of ectopic GFP-VCF1 at low levels and maintained under selection with Blasticidin and Hygromycin. To induce GFP-VCF1 expression, cells were treated with Doxycycline (DOX) (0.5 µg/ml) for 16 h. U2OS cell lines stably expressing Ub(G76V)-GFP or Ub(G76V)-GFP-20AA were described previously. A U2OS cell line stably expressing Ub(G76V)-GFP-NES was generated under G418 (Invivogen) selection. […]
Mammalian cells grown on coverslips were fixed in formalin buffer (VWR) for 15 min at room temperature (RT). […] Quantitative image-based cytometry (QIBC) was performed as described. […]

[2] = tested on: p97-UFD1-NPL4 binding to ubiquitylated proteins; assay: FLAG IP: p97-UFD1-NPL4 binding to ubiquitylated proteins in U2OS cell extracts; type: biochemical, human; conditions: U2OS total cell extracts, EBC buffer
Protocol: (§1) All in vitro binding experiments were performed in EBC or RIPA buffer as indicated. Recombinant Biotin-tagged K48-linked poly-ubiquitin chains (2−7) and K48-linked poly-ubiquitin chains (2−16) were purchased from R&D Systems and Enzo Life Science, respectively. Recombinant proteins were incubated with Strep-Tactin Sepharose (IBA), Glutathione agarose (Gold Biotechnology) or […] Fab-trap agarose (ChromoTek) overnight on an end-over-end rotator at 4 °C, washed six times with EBC or RIPA buffer, and resuspended in 2×Laemmli sample buffer. For p97, VCF1 or p47 pulldowns, antibodies (0.5 µg/sample) were coupled to agarose beads, incubated with recombinant proteins or cell lysates and washed with the indicated buffer. To assess p97-UFD1-NPL4 binding to ubiquitylated proteins in total cell extracts, U2OS cells were lysed in EBC buffer supplemented with protease and phosphatase inhibitors, sonicated and incubated on ice for 10 min. Lysates were cleared by centrifugation for 10 min at 16,100 × g. Cell lysate (40 µg) was added to recombinant proteins in EBC buffer, incubated overnight on the rotator with […] Fab-trap agarose (ChromoTek), and beads were washed six times.

[3] = tested on: p97 (WT, truncations, Y143A); assay: In vitro binding, StrepTactin pulldown of Strep-HA-VCF1 with purified p97 proteins; design: species or system human
Protocol: as §1

[4] = tested on: p97; assay: IP of endogenous VCF1 from U2OS cells; type: binding, human
Protocol: Immunoblotting was performed as previously described. Immunoprecipitation (IP) of HA-tagged proteins was performed using Anti-HA Affinity matrix (Roche) under denaturing conditions, unless otherwise stated. GFP-trap and […] Fab-trap agarose (Chromotek) were used according to manufacturer’s instructions. Cell lysis was performed using RIPA buffer (140 mM NaCl; 10 mM Tris-HCl, pH 8.0; 0.1% sodium deoxycholate; 1% Triton X-100; 0.1% SDS; 1 mM EDTA; 0.5 mM EGTA) or EBC buffer (50 mM Tris, pH 7.5; 150 mM NaCl; 1 mM EDTA; 0.5% NP-40, 1 mM DTT). IPs were washed in non-denaturing buffer (50 mM Tris-HCl, pH 7.5; 150 mM NaCl; 0.5 mM EDTA). Cell lysis and IP under partially denaturing conditions were performed using denaturing buffer (20 mM Tris-HCl, pH 7.5; 50 mM NaCl; 0.5% sodium deoxycholate; 0.5% NP-40; 0.5% SDS; 1 mM EDTA). All lysis and wash buffers were supplemented with 1 mM fresh PMSF Protease Inhibitor (Thermo), complete EDTA-free protease inhibitor Cocktail Tablets (Roche), 1.25 mM N-ethylmaleimide (Sigma) and 50 µM PR-619 (Calbiochem).

VCF1: human FAM104A isoform 1, 186 amino acids (UniProt Q969W3); recombinant Strep-HA-tagged
effect of overexpression on Ub(G76V)-GFP [1]: stabilized Ub(G76V)-GFP similar to the effect of elevating NPL4 or p47 expression levels | effect on p97-UFD1-NPL4 binding to ubiquitylated proteins [2]: prominent ability of VCF1 to enhance p97-UFD1-NPL4 binding to ubiquitylated proteins; also recorded: fully dependent on the ubiquitin-binding ability of the UFD1-NPL4 complex | p97 domain bound ([3]; full-length and truncated His6-p97 proteins): interacts with the p97 N-domain | in vitro interaction with p97 ([3]; purified His6-p97 WT, RIPA buffer): readily interacted in vitro | interaction of endogenous VCF1 with p97 ([4]; U2OS whole cell lysates): validate an interaction between endogenous VCF1 and p97 | endogenous NPL4 in endogenous VCF1 IP ([4]; U2OS, along with p97): NPL4 could be detected in endogenous VCF1 IPs along with p97
